Source: US5661165A, “((4-phenyl-1,2,5-thiadiazol-3-yl)oxy)methyl ester thiocyanic acid compounds, compositions containing them and their use as antimicrobial and marine antifouling agents” (The Dow Chemical Company, priority 1996, dated 1997)
In brackets after ≈: the same amount, converted by molar mass. Where two headings read alike, the source gives them in different places.

Columns and labels:
[1] = test system: Salmonella choleraesuis (Sc); test: MIC against bacteria (nutrient agar); assay type: cell-based, Salmonella choleraesuis ATCC 10708; settings: Salmonella enterica, 30° C., 48 h, read-out: Minimum Inhibitory Concentration, Sc
Candida albicans (Ca) = test: MIC against yeast/fungi (malt yeast agar); assay type: cell-based, Candida albicans ATCC 10231; settings: 30° C., yeast read after 48 h, read-out: Minimum Inhibitory Concentration, Ca
Procedure: (§1) The antimicrobial activity of the compounds of the present invention is set forth as the minimum inhibitory concentration (MIC) for the active compounds and is determined for nine (9) bacteria, using nutrient agar, and seven (7) yeast and fungi, using malt yeast agar. This determination is conducted using a one percent solution of the test compound prepared in a mixture of acetone and water.
(§2) Malt yeast agar is prepared by adding 3 g yeast extract and 45 g malt agar per liter of deionized water. The specific agar is dispensed in 30 mL aliquots into 25×200 mm test tubes, capped and autoclaved for 15 minutes at 115° C.
(§3) The test tubes containing the agar are cooled in a water bath until the temperature of the agar is 48° C. Then, an appropriate amount of the one percent solution of the test compound is added (except in the controls where no compound is added) to the respective test tubes so that the final concentrations are 500, 250, 100, 50, 25, 10, 5, 2.5, 1.0 and zero parts per million of the test compound in the agar, thus having a known concentration of test compound dispersed therein. The contents of the test tubes are then transferred to respective petri plates. After drying for 24 hours, the petri plates containing nutrient agar are inoculated with bacteria and those containing malt yeast agar are inoculated with yeast and fungi.
(§4) The inoculation with the yeast and fungi is accomplished as follows. Cultures of yeast and fungi are incubated for seven days on malt yeast agar at 30° C. These cultures are used to prepare suspensions by the following procedure. A suspension of each organism is prepared by adding 10 mL of sterile saline and 10 microliters of octylphenoxy polyethoxy ethanol to the agar slant of yeast or fungi. The sterile saline/octylphenoxy polyethoxy ethanol solution is then agitated with a sterile swab to suspend the microorganism grown on the slant. Each resulting suspension is diluted into sterile saline (1 part suspension to 9 parts sterile saline). Aliquots of these dilutions are placed in individual wells of Steer's Replicator and petri plates inoculated as previously described. The petri plates are incubated at 30° C. and read after 48 hours for yeast and 72 hours for fungi.
(§5) Table I lists the bacteria, yeast and fungi used in the MIC test described above along with their respective American Type Culture Collection (ATCC) identification numbers.

Escherichia coli (Ec) = test: MIC against bacteria (nutrient agar); assay type: cell-based, Escherichia coli ATCC 11229; settings: 30° C., 48 h, read-out: Minimum Inhibitory Concentration, Ec
[2] = test system: Psuedomonas aeruginosa (PRD-10); test: MIC against bacteria (nutrient agar); assay type: cell-based, Psuedomonas aeruginosa ATCC 15442; settings: 30° C., 48 h, read-out: Minimum Inhibitory Concentration, PRD
Proteus vulgaris (PV) = test: MIC against bacteria (nutrient agar); assay type: cell-based, Proteus vulgaris ATCC 881; settings: 30° C., 48 h, read-out: Minimum Inhibitory Concentration, Pv
[3] = test system: Pencillium chrysogenum (Pc); test: MIC against yeast/fungi (malt yeast agar); assay type: cell-based, Pencillium chrysogenum ATCC 9480; settings: 30° C., fungi read after 72 h, read-out: Minimum Inhibitory Concentration, Pc
Procedure: as §1, §2, §3, §4, §5

Trichoderma viride (Tv) = test: MIC against yeast/fungi (malt yeast agar); assay type: cell-based, Trichoderma viride ATCC 8678; settings: 30° C., fungi read after 72 h, read-out: Minimum Inhibitory Concentration, Tv
Procedure: as §1, §2, §3, §4, §5

[4] = test system: Staphylococcus aureus (Sa); test: MIC against bacteria (nutrient agar); assay type: cell-based, Staphylococcus aureus ATCC 6538; settings: 30° C., 48 h, read-out: Minimum Inhibitory Concentration, Sa
[5] = test system: Psuedomonas aeruginosa (Pa); test: MIC against bacteria (nutrient agar); assay type: cell-based, Psuedomonas aeruginosa ATCC 10145; settings: 30° C., 48 h, read-out: Minimum Inhibitory Concentration, Pa
Procedure: as §1
Nutrient agar is prepared at pH 6.8, representing a neutral medium, and at pH 8.2, representing an alkaline medium. The nutrient agars are prepared by adding 23 g of nutrient agar to one-liter of deionized water. In addition, the alkaline medium is prepared by adjusting a 0.04M solution of N-[tris-(hydroxymethyl)methyl]-glycine buffered deionized water with concentrated sodium hydroxide to a pH of 8.5.
as §3
The inoculation with bacteria is accomplished by using the following procedure. Twenty-four hour-cultures of each of the bacteria are prepared by incubating the respective bacteria in tubes containing nutrient broth for 24 hours at 30° C. in a shaker. Dilutions of each of the 24 hour-cultures are made so that nine separate suspensions (one for each of the nine test bacteria) are made, each containing 10^8 colony forming units (CFU) per mL of suspension of a particular bacteria. Aliquots of 0.3 mL of each of the bacterial suspensions are used to fill the individual wells of Steer's Replicator. For each microbial suspension, 0.3 mL was used to fill three wells (i.e., three wells of 0.3 mL each) so that for the nine different bacteria, 27 wells are filled. The Steer's Replicator is then used to inoculate both the neutral and alkaline pH nutrient agar petri plates.
The inoculated petri plates are incubated at 30° C. for 48 hours and then read to determine if the test compound which is incorporated into the agar prevented growth of the respective bacteria.
as §5

[6] = test system: Saccharomyces cerevisiae (Sc); test: MIC against yeast/fungi (malt yeast agar); assay type: cell-based, Saccharomyces cerevisiae ATCC 4105; settings: 30° C., yeast read after 48 h, read-out: Minimum Inhibitory Concentration, Sc
Procedure: as §1, §2, §3, §4, §5

Bacillus subtilis (Bs) = test: MIC against bacteria (nutrient agar); assay type: cell-based, Bacillus subtilis ATCC 8473; settings: 30° C., 48 h, read-out: Minimum Inhibitory Concentration, Bs
[7] = test system: Enterobacter aerogenes (Ea); test: MIC against bacteria (nutrient agar); assay type: cell-based, Enterobacter aerogenes ATCC 13048; settings: Klebsiella aerogenes, 30° C., 48 h, read-out: Minimum Inhibitory Concentration, Ea
[8] = test system: Klebsiella pneumoniae (Kp); test: MIC against bacteria (nutrient agar); assay type: cell-based, Klebsiella pneumoniae ATCC 8308; settings: 30° C., 48 h, read-out: Minimum Inhibitory Concentration, Kp
[9] = test system: Aureobasidium pullulan (Ap); test: MIC against yeast/fungi (malt yeast agar); assay type: cell-based, Aureobasidium pullulan ATCC 16622; settings: 30° C., yeast 48 h / fungi 72 h, read-out: Minimum Inhibitory Concentration, Ap
Procedure: as §1, §2, §3, §4, §5

Aperigillus niger (An) = test: MIC against yeast/fungi (malt yeast agar); assay type: cell-based, Aperigillus niger ATCC 16404; settings: 30° C., fungi read after 72 h, read-out: Minimum Inhibitory Concentration, An
Procedure: as §1, §2, §3, §4, §5

Fusarium oxysporum (Fo) = test: MIC against yeast/fungi (malt yeast agar); assay type: cell-based, Fusarium oxysporum ATCC 48112; settings: 30° C., fungi read after 72 h, read-out: Minimum Inhibitory Concentration, Fo
Procedure: as §1, §2, §3, §4, §5

SMILES | MIC ([1]; pH 6.8, nutrient agar) [µg/mL] | MIC ([1]; pH 8.2, nutrient agar) [µg/mL] | MIC (Candida albicans (Ca)) [µg/mL] | MIC (Escherichia coli (Ec); pH 6.8, nutrient agar) [µg/mL] | MIC (Escherichia coli (Ec); pH 8.2, nutrient agar) [µg/mL] | MIC ([2]; pH 6.8, nutrient agar) [µg/mL] | MIC ([2]; pH 8.2, nutrient agar) [µg/mL] | MIC (Proteus vulgaris (PV); pH 6.8, nutrient agar) [µg/mL] | MIC (Proteus vulgaris (PV); pH 8.2, nutrient agar) [µg/mL] | MIC [3] [µg/mL] | MIC (Trichoderma viride (Tv)) [µg/mL] | MIC ([4]; pH 6.8, nutrient agar) [µg/mL] | MIC ([4]; pH 8.2, nutrient agar) [µg/mL] | MIC ([5]; pH 6.8, nutrient agar) [µg/mL] | MIC ([5]; pH 8.2, nutrient agar) [µg/mL] | MIC [6] [µg/mL] | MIC (Bacillus subtilis (Bs); pH 6.8, nutrient agar) [µg/mL] | MIC (Bacillus subtilis (Bs); pH 8.2, nutrient agar) [µg/mL] | MIC ([7]; pH 6.8, nutrient agar) [µg/mL] | MIC ([7]; pH 8.2, nutrient agar) [µg/mL] | other results
N#CSCOc1nsnc1-c1cccc(Cl)c1 [II, ((4-(3-Chlorophenyl)-1,2,5-thiadiazol-3-yl)oxy)methyl ester thiocyanic acid] | 500 (≈ 1760 µM) | > 500 | 5 (≈ 17.6 µM) | 500 (≈ 1760 µM) | > 500 | > 500 | > 500 | > 500 | 500 (≈ 1760 µM) | < 1 | 500 (≈ 1760 µM) | < 10 | < 10 | > 500 | > 500 | < 1 | < 10 | < 10 | > 500 | 500 (≈ 1760 µM) | MIC ([8]; pH 6.8, nutrient agar): 500 µg/mL (≈ 1760 µM); MIC ([8]; pH 8.2, nutrient agar): 500 µg/mL (≈ 1760 µM); MIC [9]: 2.5 µg/mL (≈ 8.81 µM); MIC (Aperigillus niger (An)): 2.5 µg/mL (≈ 8.81 µM); MIC (Fusarium oxysporum (Fo)): 10 µg/mL (≈ 35.2 µM)
N#CSCOc1nsnc1-c1cccc(F)c1 [III, ((4(3Fluorophenyl)-1,2,5-thiadiazol-3-yl)oxy)methyl ester thiocyanic acid] | 500 (≈ 1870 µM) | > 500 | 5 (≈ 18.7 µM) | 500 (≈ 1870 µM) | > 500 | > 500 | > 500 | > 500 | 500 (≈ 1870 µM) | < 1 | 500 (≈ 1870 µM) | < 10 | 25 (≈ 93.5 µM) | > 500 | > 500 | < 1 | < 10 | < 10 | > 500 | 500 (≈ 1870 µM) | MIC ([8]; pH 6.8, nutrient agar): 500 µg/mL (≈ 1870 µM); MIC ([8]; pH 8.2, nutrient agar): 500 µg/mL (≈ 1870 µM); MIC [9]: < 1 µg/mL; MIC (Aperigillus niger (An)): < 1 µg/mL; MIC (Fusarium oxysporum (Fo)): 100 µg/mL (≈ 374 µM)
N#CSCOc1nsnc1-c1ccc(F)cc1 [IV, ((4(4-Fluorophenyl)-1,2,5-thiadiazol-3-yl)oxy)methyl ester thiocyanic acid] | 500 (≈ 1870 µM) | > 500 | 5 (≈ 18.7 µM) | 500 (≈ 1870 µM) | > 500 | > 500 | > 500 | > 500 | 500 (≈ 1870 µM) | < 1 | 500 (≈ 1870 µM) | < 10 | 25 (≈ 93.5 µM) | > 500 | > 500 | 2.5 (≈ 9.35 µM) | < 10 | < 10 | > 500 | 500 (≈ 1870 µM) | MIC ([8]; pH 6.8, nutrient agar): 500 µg/mL (≈ 1870 µM); MIC ([8]; pH 8.2, nutrient agar): 500 µg/mL (≈ 1870 µM); MIC [9]: 2.5 µg/mL (≈ 9.35 µM); MIC (Aperigillus niger (An)): 2.5 µg/mL (≈ 9.35 µM); MIC (Fusarium oxysporum (Fo)): 5 µg/mL (≈ 18.7 µM)
